Measurements from the NIST ThermoML archive (doi:10.1016/j.jct.2010.07.016).

Assays:
[1] = xn = mol fraction of the nth substance listed; settings: 308.15 K, 101 kPa, Liquid; for excess molar volume: Direct dilatometry; for speed of sound: Linear variable-path acoustic interferometer
[2] = excess molar enthalpy (molar enthalpy of mixing); xn = mol fraction of the nth substance listed; settings: 308.15 K, 101 kPa, Liquid, Drop calorimeter

Cc1ccccc1C [1,2-dimethylbenzene] + C1CCOCC1
Settings	excess molar enthalpy [kcal/mol]	excess molar volume [m3/mol]	speed of sound [m/s]
[1], x2 = 0.0536	–	-1.2e-08	–
[1], x2 = 0.0643	–	-1.4e-08	–
[1], x2 = 0.0805	–	-1.7e-08	–
[1], x2 = 0.0854	–	–	1319
[1], x2 = 0.1127	–	-2.3e-08	–
[1], x2 = 0.1494	–	–	1315
[1], x2 = 0.1816	–	-3.4e-08	–
[1], x2 = 0.2134	–	–	1309
[1], x2 = 0.2834	–	–	1303
[1], x2 = 0.2975	–	-4.7e-08	–
[1], x2 = 0.3778	–	–	1293
[1], x2 = 0.3954	–	-5.3e-08	–
[1], x2 = 0.4756	–	–	1281
[1], x2 = 0.4935	–	-5.5e-08	–
[1], x2 = 0.5132	–	–	1277
[1], x2 = 0.52	–	-5.4e-08	–
[1], x2 = 0.5642	–	-5.3e-08	–
[1], x2 = 0.5668	–	–	1270
[1], x2 = 0.6124	–	–	1265
[1], x2 = 0.6421	–	-4.8e-08	–
[1], x2 = 0.7035	–	–	1254
[1], x2 = 0.7314	–	-4e-08	–
[1], x2 = 0.7866	–	–	1245
[1], x2 = 0.8645	–	–	1237
[1], x2 = 0.8832	–	-1.9e-08	–
[1], x2 = 0.9228	–	-1.3e-08	–
[1], x2 = 0.9344	–	–	1230
[1], x2 = 0.9545	–	–	1228
[2], x2 = 0.0587	-0.00636	–	–
[2], x2 = 0.0691	-0.00729	–	–
[2], x2 = 0.0838	-0.00851	–	–
[2], x2 = 0.1451	-0.0123	–	–
[2], x2 = 0.1809	-0.0137	–	–
[2], x2 = 0.2454	-0.0147	–	–
[2], x2 = 0.3023	-0.0141	–	–
[2], x2 = 0.3872	-0.0111	–	–
[2], x2 = 0.4425	-0.00817	–	–
[2], x2 = 0.5752	0.000574	–	–
[2], x2 = 0.647	0.00526	–	–
[2], x2 = 0.7443	0.0101	–	–
[2], x2 = 0.8495	0.0112	–	–
[2], x2 = 0.9437	0.00638	–	–

Cc1cccc(C)c1 [1,3-dimethylbenzene] + C1CCOCC1
Settings	excess molar enthalpy [kcal/mol]	excess molar volume [m3/mol]	speed of sound [m/s]
[1], x2 = 0.0626	–	-6e-09	–
[1], x2 = 0.0923	–	–	1277
[1], x2 = 0.1258	–	-1.2e-08	–
[1], x2 = 0.1515	–	–	1273
[1], x2 = 0.1731	–	-1.7e-08	–
[1], x2 = 0.2161	–	–	1269
[1], x2 = 0.2459	–	-2.2e-08	–
[1], x2 = 0.285	–	–	1264
[1], x2 = 0.3278	–	–	1261
[1], x2 = 0.3452	–	-2.8e-08	–
[1], x2 = 0.3611	–	–	1259
[1], x2 = 0.4081	–	–	1256
[1], x2 = 0.4411	–	-3.2e-08	–
[1], x2 = 0.4621	–	–	1253
[1], x2 = 0.4801	–	-3.2e-08	–
[1], x2 = 0.5179	–	–	1250
[1], x2 = 0.5413	–	-3.2e-08	–
[1], x2 = 0.5568	–	–	1248
[1], x2 = 0.6033	–	-3.2e-08	–
[1], x2 = 0.6179	–	–	1244
[1], x2 = 0.6541	–	-3e-08	–
[1], x2 = 0.7078	–	–	1239
[1], x2 = 0.7113	–	-2.7e-08	–
[1], x2 = 0.7852	–	-2.2e-08	–
[1], x2 = 0.7889	–	–	1235
[1], x2 = 0.8646	–	–	1231
[1], x2 = 0.8934	–	-1.2e-08	–
[1], x2 = 0.9229	–	-9e-09	–
[2], x2 = 0.0474	-0.00437	–	–
[2], x2 = 0.086	-0.0071	–	–
[2], x2 = 0.1141	-0.00863	–	–
[2], x2 = 0.1754	-0.0107	–	–
[2], x2 = 0.26	-0.011	–	–
[2], x2 = 0.3488	-0.00872	–	–
[2], x2 = 0.4432	-0.00416	–	–
[2], x2 = 0.4765	-0.0022	–	–
[2], x2 = 0.5624	0.00311	–	–
[2], x2 = 0.6834	0.00978	–	–
[2], x2 = 0.7603	0.0122	–	–
[2], x2 = 0.8001	0.0126	–	–
[2], x2 = 0.8744	0.0112	–	–
[2], x2 = 0.9453	0.00643	–	–

C1CCOCC1 [tetrahydropyran] + Cc1ccc(C)cc1
Settings	excess molar enthalpy [kcal/mol]	excess molar volume [m3/mol]	speed of sound [m/s]
[1], x1 = 0.0639	–	-2.2e-08	–
[1], x1 = 0.0784	–	–	1271
[1], x1 = 0.1503	–	-4.3e-08	–
[1], x1 = 0.1521	–	–	1267
[1], x1 = 0.2123	–	–	1263
[1], x1 = 0.2321	–	-5.5e-08	–
[1], x1 = 0.2835	–	-5.9e-08	–
[1], x1 = 0.2876	–	–	1258
[1], x1 = 0.3331	–	-6.1e-08	–
[1], x1 = 0.3342	–	–	1255
[1], x1 = 0.3832	–	-6.1e-08	–
[1], x1 = 0.4091	–	–	1251
[1], x1 = 0.4421	–	-6e-08	–
[1], x1 = 0.4953	–	–	1247
[1], x1 = 0.5127	–	-5.7e-08	–
[1], x1 = 0.5186	–	–	1245
[1], x1 = 0.5515	–	-5.4e-08	–
[1], x1 = 0.5684	–	–	1243
[1], x1 = 0.6027	–	-4.9e-08	–
[1], x1 = 0.6175	–	–	1241
[1], x1 = 0.6529	–	-4.4e-08	–
[1], x1 = 0.7077	–	–	1237
[1], x1 = 0.7211	–	-3.6e-08	–
[1], x1 = 0.7905	–	-2.7e-08	–
[1], x1 = 0.7909	–	–	1233
[1], x1 = 0.8666	–	–	1230
[1], x1 = 0.8673	–	-1.7e-08	–
[1], x1 = 0.9354	–	–	1227
[2], x1 = 0.0804	-0.00684	–	–
[2], x1 = 0.1402	-0.0127	–	–
[2], x1 = 0.2416	-0.0226	–	–
[2], x1 = 0.3002	-0.0274	–	–
[2], x1 = 0.3842	-0.0325	–	–
[2], x1 = 0.4706	-0.0349	–	–
[2], x1 = 0.5776	-0.0335	–	–
[2], x1 = 0.6454	-0.0302	–	–
[2], x1 = 0.6914	-0.0271	–	–
[2], x1 = 0.7432	-0.0228	–	–
[2], x1 = 0.7919	-0.0183	–	–
[2], x1 = 0.8476	-0.0129	–	–
[2], x1 = 0.9021	-0.0077	–	–
[2], x1 = 0.9415	-0.00423	–	–

C1CCOCC1 [tetrahydropyran] + Cc1ccccc1
Settings	excess molar enthalpy [kcal/mol]	excess molar volume [m3/mol]	speed of sound [m/s]
[1], x1 = 0.0554	–	-3.1e-08	–
[1], x1 = 0.0673	–	-3.7e-08	–
[1], x1 = 0.085	–	-4.6e-08	–
[1], x1 = 0.0925	–	–	1259
[1], x1 = 0.1343	–	–	1258
[1], x1 = 0.1534	–	-7.9e-08	–
[1], x1 = 0.1789	–	–	1257
[1], x1 = 0.1861	–	-9.2e-08	–
[1], x1 = 0.2311	–	-1.1e-07	–
[1], x1 = 0.2587	–	–	1256
[1], x1 = 0.2942	–	-1.29e-07	–
[1], x1 = 0.3742	–	–	1254
[1], x1 = 0.4109	–	-1.53e-07	–
[1], x1 = 0.4263	–	–	1253
[1], x1 = 0.4815	–	–	1251
[1], x1 = 0.5187	–	–	1250
[1], x1 = 0.5273	–	-1.59e-07	–
[1], x1 = 0.5795	–	–	1248
[1], x1 = 0.6433	–	-1.46e-07	–
[1], x1 = 0.6765	–	–	1243
[1], x1 = 0.7122	–	–	1242
[1], x1 = 0.7215	–	-1.27e-07	–
[1], x1 = 0.7646	–	–	1239
[1], x1 = 0.8202	–	-9.3e-08	–
[1], x1 = 0.8487	–	–	1234
[1], x1 = 0.9252	–	–	1229
[1], x1 = 0.9297	–	-4e-08	–
[1], x1 = 0.9735	–	-1.6e-08	–
[2], x1 = 0.0445	-0.00681	–	–
[2], x1 = 0.0662	-0.0102	–	–
[2], x1 = 0.0837	-0.0129	–	–
[2], x1 = 0.1138	-0.0176	–	–
[2], x1 = 0.2154	-0.0324	–	–
[2], x1 = 0.2806	-0.0403	–	–
[2], x1 = 0.3031	-0.0427	–	–
[2], x1 = 0.397	-0.0502	–	–
[2], x1 = 0.5319	-0.0532	–	–
[2], x1 = 0.6305	-0.0492	–	–
[2], x1 = 0.7413	-0.0389	–	–
[2], x1 = 0.8325	-0.0268	–	–
[2], x1 = 0.9352	-0.0106	–	–
[2], x1 = 0.9727	-0.00447	–	–

C1CCOCC1 [tetrahydropyran] + c1ccccc1
Settings	excess molar enthalpy [kcal/mol]	excess molar volume [m3/mol]	speed of sound [m/s]
[1], x1 = 0.0555	–	–	1256
[1], x1 = 0.0684	–	-4.9e-08	–
[1], x1 = 0.1029	–	-6.9e-08	–
[1], x1 = 0.1165	–	–	1253
[1], x1 = 0.1472	–	–	1251
[1], x1 = 0.1673	–	-1.01e-07	–
[1], x1 = 0.1835	–	-1.08e-07	–
[1], x1 = 0.2223	–	–	1248
[1], x1 = 0.243	–	-1.29e-07	–
[1], x1 = 0.2728	–	–	1246
[1], x1 = 0.3143	–	-1.45e-07	–
[1], x1 = 0.3751	–	–	1241
[1], x1 = 0.4085	–	-1.56e-07	–
[1], x1 = 0.4395	–	–	1239
[1], x1 = 0.4821	–	–	1237
[1], x1 = 0.5291	–	-1.52e-07	–
[1], x1 = 0.5313	–	–	1238
[1], x1 = 0.599	–	-1.42e-07	–
[1], x1 = 0.6223	–	–	1233
[1], x1 = 0.6543	–	-1.3e-07	–
[1], x1 = 0.681	–	–	1231
[1], x1 = 0.7321	–	–	1230
[1], x1 = 0.7452	–	-1.05e-07	–
[1], x1 = 0.7823	–	-9.3e-08	–
[1], x1 = 0.8253	–	–	1228
[1], x1 = 0.8754	–	-5.7e-08	–
[1], x1 = 0.9123	–	–	1226
[1], x1 = 0.9539	–	-2.3e-08	–
[2], x1 = 0.0484	-0.00779	–	–
[2], x1 = 0.0757	-0.0123	–	–
[2], x1 = 0.0978	-0.016	–	–
[2], x1 = 0.1432	-0.0235	–	–
[2], x1 = 0.2425	-0.0384	–	–
[2], x1 = 0.311	-0.0467	–	–
[2], x1 = 0.385	-0.053	–	–
[2], x1 = 0.4982	-0.0565	–	–
[2], x1 = 0.6013	-0.0531	–	–
[2], x1 = 0.6875	-0.0456	–	–
[2], x1 = 0.7073	-0.0434	–	–
[2], x1 = 0.7832	-0.0334	–	–
[2], x1 = 0.8501	-0.0233	–	–
[2], x1 = 0.923	-0.0117	–	–
